US20250339470A1, “METHODS AND COMPOSITIONS FOR MATURING CARDIOMYOCYTES” (President and Fellows of Harvard College, priority 2024, published 2025)
“Also recorded” adds a separate entry of the source.

How the values were obtained:
[1] = test system: hiPSC-CMs transplanted into rat hearts; assay: Electrophysiological recording with flexible mesh nanoelectronics (Langendorff); format: in vivo; conditions: 3 months after transplantation into the athymic rat heart
Protocol: The inventors used RNU nude rats (8-10 weeks old, male, 250-350 g). Rats received cyclosporine injections (15 mg/kg) as an immunosuppressant a day before the injection and every day after surgery. […] After at least five days of observation in healthy conditions, the rats were applied to the electrophysiological study. […] As a pre-surgical analgesic, buprenorphine (0.1 mg/kg) was administered to the rats before anesthesia. […] The distal ascending aorta was ligated with a 4-0 silk suture, followed by infusion of heparin to coronary arteries, with the right atrium cut open to infuse efficiently with decreased right atrium pressure. […] The temperature of the circulated solution, the chamber of the Langendorff, and the heart rate were monitored with a data acquisition system (Bridge Amp (PowerLab 8/30, ADInstruments, USA), Bio Amp (Product code: FE231, ADInstruments, USA), Spring Clip Electrodes (Product code: MLA1214, AD ADInstruments, USA), and LabChart software v8.1.20) until the heart beating became stable. […] The inventors analyzed the electrophysiological data with a customized Python script. […] The inventors then detected electrical spikes using “find_peaks” from Scipy. The inventors manually curated the detected spikes into host sinus rhythm, automaticity/arrhythmia rhythm, and noises. […] The spikes were recorded at both the injection and reference sites. • 2. […]

hiPSC-CMs = assay: qPCR mRNA expression of hiPSC-CMs cultured 7 days on SAP-coated plates; format: cell-based, human; conditions: 7 days on 0.25% SAP coating; control Geltrex
Protocol: At day 14 of cardiomyocyte differentiation, completion of the protocol was confirmed. Fully beating cardiomyocyte embryoid bodies were dissociated using the cardiomyocyte dissociation kit (STEMdiff Cardiomyocyte Dissociation Kit, […] Technologies, Canada) and reseeded (1.2 million cells/well) onto 6-well plates, which were prepared as follows. Each 6-well plate had 3 wells coated with Geltrex (control) and 3 wells coated with one of four self-assembling peptides (SAPs) at 0.25% concentration such that the differentiated cardiomyocytes would be cultured with the SAP. Specifically, the following SAPs were used in this study: RADA16, IEIK13, KLD12, and QLEL12. The cells were maintained for further in vitro analysis. Total RNA was extracted 7 days after initial exposure to each SAP to analyze messenger RNA (mRNA) expression of cardiomyocyte genes characteristics of an adult-like state. The inventors used Tryzol (TRIzol Reagent, Invitrogen, USA) to extract total RNA and a purification kit (E.Z.N.A. Total RNA kit I, Omega Bio-tec, Inc., Georgia, USA) according to the manufacturer's instructions. After quantification, RNA was reverse transcribed to cDNA using the High-Capacity cDNA Reverse Transcription Kit (Applied Biosystems) according to the manufacturer's instructions. Quantitative Polymerase Chain Reaction (qPCR) was performed in triplicate for each sample using the iTaq Universal SYBR Green Supermix (Bio-Rad) and the primer pairs (table S3) with a Bio-Rad CFX384 Real-Time thermal cycler. Double delta analyses were performed to compute the relative mRNA expression of each target gene using glyceraldehyde-3-phosphate dehydrogenase (GAPDH) as a housekeeping control gene.

[2] = test system: hiPSC-CMs injected into the rat left ventricle wall; assay: Sarcomere organization (SOTA), orientation and length of injected hiPSC-CMs; format: in vivo; conditions: 7 days post-injection
Protocol: The sections were stained with anti-cardiac troponin T antibody (Alexa Fluor 647 Mouse Anti-Cardiac Troponin T (cat #565744): cTnT, BD Pharmagen. 1:200), anti-human troponin I antibody (Recombinant Anti-Cardiac Troponin I antibody [EP1106Y] (ab52862): hTnI, Abcam 1:250), and DAPI as performed in the immunofluorescent staining. […] In this study, the inventors applied SarcOmere Texture Analysis (SOTA) to quantify sarcomere organization (17). SOTA was conducted by independent investigators who had no prior knowledge of the sample information. This methodological approach minimized potential biases and enhanced the reliability of the results.
hiPSC-CMs were stained with hTnI to identify myofilaments. […]
Sarcomere length was measured as the distance between hTnI-stained Z-lines from cardiomyocytes with visible sarcomere structures. An average of 10 sarcomeres from each sample was calculated on an interpolated YZ projection to account for spatial distribution across different regions of the image (45). […]
The inventors performed the automated analysis of sarcomere organization using SOTA, which was previously validated in endogenous, direct reprogrammed, and induced pluripotent-derived cardiomyocytes (17). […] The inventors also calculated the primary sarcomere orientation using the SOTA angle of peak prominence. […]

Substance	ventricular bigeminy [1]	expression of GJA1 (hiPSC-CMs)	expression of KCNJ2 (hiPSC-CMs)	expression of NANOG (hiPSC-CMs)	ratio of MYH7 mRNA expression to MYH6 expression (hiPSC-CMs)	ratio of TNNI3 to TNNI1 expression (hiPSC-CMs)	sarcomere length [2]
RADA16	not observed	significantly higher in the RADA16 group compared to all other SAP groups and the control group; also recorded: highest expression	significantly higher; also recorded: highest expression	significantly lower in the RADA16 and control groups than in the IEIK13 group; also recorded: no significant difference between the control and RADA16 group; also recorded: significantly declined	significantly higher in the RADA16 group than in the IEIK13 and QLEL12 groups; also recorded: not significantly different between the RADA16 and control groups nor the RADA16 and KLD12 groups; also recorded: most pronounced increase	higher TNNI3/TNNI1 expression ratio	not associated with a difference
KLD12			significantly higher				
IEIK13			significantly higher				
